Earlier results, collected in patent publication US20040210280A1, “Plaster-type chip systems for thermodynamic control of topical dermal and transdermal systems” (BIONICS PHARMA GmbH, priority 2002, published 2004).

What was measured:
[1] = in vivo
[2] = in vivo; remark: listed apart in the source

Molecule	concentrations of nitroglycerine in the plasma [1]	plasma concentrations of nitroglycerine [1]	rate of disappearance from the subcutaneous tissue [2]
O=[N+]([O-])OCC(CO[N+](=O)[O-])O[N+](=O)[O-] [nitroglycerine]	increased by two to three times	decrease	–
125I-labelled insulin: previously injected 125I-labelled insulin	–	–	increased rate of disappearance
